Assay [1] relates to CST-2/3 cisplatin-resistant cells. Kind of assay: Monoculture PrestoBlue cytotoxicity test, cisplatin-resistant CST-2/3. Type of assay: cell-based, mouse. The note with it: for RR_CST resistance ratio (IC50_CST-2/3 / IC50_CST): CST-2/3 vs CST; for IC50: monoculture, 120 h exposure, PrestoBlue. On the procedure:
(§1) CST, a drug-naïve murine breast cancer cell line, and cisplatin-resistant cells CST-2/3 were seeded in monoculture into 384-well plates (Corning Inc., Corning, NY, USA) at a density of 2500 cells per well using automated liquid-handling. The cells were preincubated for 24 h to ensure adherence, followed by the addition of serially diluted compounds to a final well volume of 60 µL. Following 120 h of continuous drug exposure, cell viability was quantified using the PrestoBlue viability assay (Thermo Fisher Scientific, Waltham, MA, USA) after 1 h incubation at 555 nm excitation and 585 nm emission wavelengths.
(§2) pIC50 values derived from both co- and monoculture systems were determined by a custom program written in C# [25], then average and standard deviations were calculated and transformed to IC50 values. Every compound was tested in at least 3 independent experiments in triplicates.

Assay [2] deals with CST murine breast cancer cell line. Description: Monoculture PrestoBlue cytotoxicity test, CST. The note with it: 120 h exposure. The class given is cell-based, mouse. On the procedure:
as §1, §2

For assay [3], the system named is Mes-Sa mCherry uterine sarcoma cell line. Description: Triple coculture fluorescence cytotoxicity test, parental line. Type of assay: cell-based, human. The settings on record: 144 h incubation, fluorescence readout. On the procedure: (§3) All synthesized complexes and representatives of the respective ligands (Lb, Lc, SIPr, IPr) were tested in a triple coculture of uterine sarcoma cell lines, consisting of the parental Mes-Sa cell line, and its MDR derivatives Mes-Sa/B1 and Mes-Sa/Dx5, transfected or selected in doxorubicin to overexpress P-glycoprotein, respectively (Figure 2a–c, Table S2). Each cell line expresses a distinct fluorescent protein (mCherry, mOrange, and eGFP, respectively), and the total fluorescence of a well is proportional to the cell number, allowing the assessment of compound cytotoxicity.
(§4) In a triple coculture system, cell lines expressing different fluorescent proteins were seeded in the same well. Cell lines (Mes-Sa mCherry, Mes-Sa/B1 mOrange, Mes-Sa/Dx5 eGFP [25]) were admixed and seeded on 384-well plates at a density of 3 × 800 cells/well (1:1:1 ratio), resulting in an overall total of 2400 cells. The next day, serially diluted compounds were added to the wells. Liquid handling was managed by a Hamilton StarLet pipetting robot. After 144 h of incubation, the fluorescence of mCherry (ex/em: 585/610 nm), mOrange (ex/em: 545/567 nm) and eGFP (ex/em: 485/510 nm) was recorded with an EnSpire plate reader (PerkinElmer, Waltham, MA, USA).
as §2

For assay [4], the system named is Mes-Sa/B1 mOrange. Kind of assay: Triple coculture fluorescence cytotoxicity test, ABCB1-transfected MDR line. The class given is cell-based, human. The settings on record: for RR_B1 resistance ratio (IC50_MDR line / IC50_parental line) of Mes-Sa/B1: Mes-Sa/B1 vs Mes-Sa; for IC50: triple coculture, 144 h incubation, fluorescence readout. On the procedure:
as §3, §4, §2

For assay [5], the system named is Mes-Sa/Dx5 eGFP. Description: Triple coculture fluorescence cytotoxicity test, doxorubicin-selected MDR line. Type of assay: cell-based, human. The note with it: for RR_Dx5 resistance ratio (IC50_MDR line / IC50_parental line) of Mes-Sa/Dx5: Mes-Sa/Dx5 vs Mes-Sa; for IC50: triple coculture, 144 h incubation, fluorescence readout. On the procedure: as §3, §4, §2

In the case of `N.N.O=C([O-])C1(C(=O)[O-])CCC1.[Pt+2]` [Carboplatin, reference compound], in assay [1], the “RR_CST resistance ratio (IC50_CST-2/3 / IC50_CST)” value is recorded as 7.0 and the midpoint of inhibition, the IC50, lay at 6.24 µM. The molecule further displayed an IC50 in assay [2] of 0.89 µM.
On to `CC(C)c1cccc(C(C)C)c1N1[CH]([Cu][Cl])N([C@@H](C)c2ccccc2)C[C@@H]1C(C)(C)C` (stereo partly shown) [Compound 1b], for which the IC50 in assay [3] came out at 1.74 µM; in assay [3] (listed as 1b*) it was 0.75 µM; in assay [4], 8.51 µM; in assay [4] (listed as 1b*) it was 5.25 µM; in assay [5] it was 2.32 µM; in assay [5] (listed as 1b*), 1.46 µM. In addition, the IC50 in assay [1] was found to be 4.92 µM; in assay [2] it was 2.81 µM. The “RR_B1 resistance ratio (IC50_MDR line / IC50_parental line) of Mes-Sa/B1” value in assay [4] amounted to 4.9; in assay [4] (listed as 1b*), 7.0. In addition, the “RR_Dx5 resistance ratio (IC50_MDR line / IC50_parental line) of Mes-Sa/Dx5” value was 1.3 in assay [5] and 1.9 in assay [5] (listed as 1b*). Also, in assay [1], the “RR_CST resistance ratio (IC50_CST-2/3 / IC50_CST)” value was determined as 1.8.
As for `CC(C)c1cccc(C(C)C)c1N1[C](=[Cu][Cl])N([C@@H](C)c2cccc3ccccc23)C[C@@H]1C(C)(C)C` [Compound 1d], the IC50 is 0.51 µM in assay [3]; 4.94 µM in assay [4]; 1.74 µM in assay [5]; 1.82 µM in assay [1]; 1.38 µM in assay [2]. Besides, the “RR_B1 resistance ratio (IC50_MDR line / IC50_parental line) of Mes-Sa/B1” value in assay [4] came to 9.8. Also, the “RR_Dx5 resistance ratio (IC50_MDR line / IC50_parental line) of Mes-Sa/Dx5” value in assay [5] was determined as 3.4. Also, the “RR_CST resistance ratio (IC50_CST-2/3 / IC50_CST)” value in assay [1] is on record as 1.3.
As for `CC(C)c1cccc(C(C)C)c1N1[C](=[Ag][Cl])N([C@@H](C)c2ccccc2)C[C@@H]1C(C)(C)C` [Compound 2b], the half-maximal inhibitory concentration (IC50) in assay [3] turned out to be 0.75 µM; in assay [4] it was 14.3 µM; in assay [5] it was 5.5 µM; in assay [1] it was 2.17 µM; in assay [2], 1.01 µM. In assay [4], the “RR_B1 resistance ratio (IC50_MDR line / IC50_parental line) of Mes-Sa/B1” value is recorded as 19.1. In assay [5], the “RR_Dx5 resistance ratio (IC50_MDR line / IC50_parental line) of Mes-Sa/Dx5” value stood at 7.3. For the same molecule, the “RR_CST resistance ratio (IC50_CST-2/3 / IC50_CST)” value in assay [1] stood at 2.2.
For the molecule `CC(C)c1cccc(C(C)C)c1N1[C](=[Ag][Cl])N([C@H](C)c2ccc3ccccc3c2)C[C@@H]1C(C)(C)C` [Compound 2e], the IC50 came to 0.93 µM in assay [3]; 7.37 µM in assay [4]; 5.25 µM in assay [5]; 1.98 µM in assay [1]; 1.28 µM in assay [2]. In addition, in assay [4], the “RR_B1 resistance ratio (IC50_MDR line / IC50_parental line) of Mes-Sa/B1” value is given as 7.9. Moreover, the “RR_Dx5 resistance ratio (IC50_MDR line / IC50_parental line) of Mes-Sa/Dx5” value in assay [5] worked out at 5.6. The “RR_CST resistance ratio (IC50_CST-2/3 / IC50_CST)” value in assay [1] is given as 1.5.
Turning to `CC(C)c1cccc(C(C)C)c1N1[C](=[Au][Cl])N([C@@H](C)c2ccccc2)C[C@@H]1C(C)(C)C` [Compound 3b], the half-inhibitory concentration (IC50) in assay [3] was 6.17 µM; in assay [4], 14.8 µM; in assay [5] it was 9.92 µM; in assay [1], 25.1 µM; in assay [2] it was 22.9 µM. For the same molecule, the “RR_B1 resistance ratio (IC50_MDR line / IC50_parental line) of Mes-Sa/B1” value in assay [4] came out at 2.4. The “RR_Dx5 resistance ratio (IC50_MDR line / IC50_parental line) of Mes-Sa/Dx5” value in assay [5] is reported as 1.6. In addition, the “RR_CST resistance ratio (IC50_CST-2/3 / IC50_CST)” value in assay [1] worked out at 1.1.
On to `CC(C)c1cccc(C(C)C)c1N1[C](=[Au][Cl])N([C@@H](C)c2cccc3ccccc23)C[C@@H]1C(C)(C)C` [Compound 3d], for which the IC50 stood at 7.81 µM in assay [3]; 21.9 µM in assay [4]; 19.4 µM in assay [5]; 8.38 µM in assay [1]; 6.17 µM in assay [2]. Besides, the “RR_B1 resistance ratio (IC50_MDR line / IC50_parental line) of Mes-Sa/B1” value in assay [4] was 2.8. The “RR_Dx5 resistance ratio (IC50_MDR line / IC50_parental line) of Mes-Sa/Dx5” value in assay [5] is given as 2.5. Further, the “RR_CST resistance ratio (IC50_CST-2/3 / IC50_CST)” value in assay [1] is on record as 1.4.
Take `C=C[CH2][Pd]([Cl])=[C]1N([C@H](C)c2ccccc2)C[C@H](C(C)(C)C)N1c1c(C(C)C)cccc1C(C)C` [Compound 4c]: the IC50 in assay [3] was 2.34 µM; in assay [4], 5.62 µM; in assay [5] it was 10.1 µM; in assay [1], 1.35 µM; in assay [2] it was 1.1 µM. Also, the “RR_B1 resistance ratio (IC50_MDR line / IC50_parental line) of Mes-Sa/B1” value in assay [4] was 2.4. The “RR_Dx5 resistance ratio (IC50_MDR line / IC50_parental line) of Mes-Sa/Dx5” value in assay [5] is 4.3. Besides, the “RR_CST resistance ratio (IC50_CST-2/3 / IC50_CST)” value in assay [1] is listed as 1.2.

These data come from article PMC12692346, “Imidazolinium-Based NHC–Metal Complexes Overcome Both Cancer Multidrug Resistance and Cisplatin Resistance In Vitro” (International Journal of Molecular Sciences, 2025).
